Here are results for 2 molecules from patent publication US20220296718A1, “EXCIPIENT FOR BIOTHERAPEUTICS” (Ludwig-Maximilians-Universität München, priority 2019, published 2022).

Format in all cases: physicochemical
Data set [1] concerns the target recombinant anakinra (Homo sapiens, UniProt P18510). Nature of the data set: Particles and turbidity after freezing/thawing and stirring stress of anakinra. The settings on record: 50 mg/ml anakinra, 20 mM citrate pH 6.5, 50 mM excipient, freezing/thawing and 3 h stirring stress. Here is the method:
(§1) The production of test solutions, the freeze/thaw-cycle, the measurement of stirring stress and the visual inspection were performed substantially as described in Example 4.
The buffer solution consisted of 20 mM citrate buffer pH 6.5. The samples were stirred for 3 h.
N,N,N′,N′-tetrakis-(2-hydroxyethyl) adipinic acid amide (Ark Pharm Inc.), D(+) or trehalose (Sigma-Aldrich), or polysorbate 80, was added as a test excipient to an aqueous solution containing recombinant anakinra. […] In the case of polysorbate 80 its concentration was 0.05%. The resulting solutions were subjected to freezing/thawing stress and stirring stress.

Data set [2] concerns the target T1, recombinant G-CSF (Homo sapiens, UniProt P09919).
T1 sequence (P09919 31-207): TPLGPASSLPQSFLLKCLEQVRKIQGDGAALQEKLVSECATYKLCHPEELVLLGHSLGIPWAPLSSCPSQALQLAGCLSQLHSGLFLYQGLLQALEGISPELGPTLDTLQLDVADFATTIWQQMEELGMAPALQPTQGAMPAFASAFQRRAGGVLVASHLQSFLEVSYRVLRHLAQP
Put plainly: Particles and turbidity after freezing/thawing and stirring stress of G-CSF. The settings on record: 1 mg/ml G-CSF, 10 mM acetate pH 4.5, 50 mM excipient; compared with trehalose, sucrose, or trehalose or sucrose with methionine. Here is the method:
as §1
The buffer solution consisted of 10 mM acetate buffer pH 4.5 and was renewed after 4 hours and after 16 hours. For the freeze/thaw cycle and the measurements of stirring stress, 2R vials were used.
N,N,N′,N′-tetrakis-(2-hydroxyethyl) adipinic acid amide (Ark Pharm Inc.), D(+) trehalose (Sigma-Aldrich), sucrose, and mixtures of trehalose or sucrose with methionine (Sigma-Aldrich) respectively, was added as a test excipient to an aqueous solution containing recombinant G-CSF. […] In the case of sucrose or trehalose mixtures with methionine, the concentration of the sugar was 50 mM, and the concentration of methionine was 20 mM. The resulting solutions were subjected to freezing/thawing stress and stirring stress.

Data set [3] in a line: Solubility in water, classification of the European Pharmacopoeia. Here is the method:
In certain embodiments, the diamide has a solubility in water of at least about 0.02% (w/v), of at least about 0.05% (w/v), of at least about 0.1% (w/v), of at least about 0.5% (w/v) or of at least about 1% (w/v) at 20° C., e.g. as determined by the column elution method according to the OECD Guidelines, Test No. 105. Preferably, the diamide is considered as soluble, well soluble or freely soluble according to the classifications of the European Pharmacopoeia, which is herein incorporated by reference.

In data set [4] the test system is IgG antibody trastuzumab. Put plainly: Particle formation after freezing/thawing stress of trastuzumab (flow imaging microscopy). The settings on record: 50 mM phosphate buffer, pH 7.0; 5 mg/ml trastuzumab; 50 mM excipient; FIG. 1. Here is the method: (§2) Production of Test Solutions: The buffer solution consisted of 50 mM sodium phosphate at pH 7.0. Protein stock solutions were liberated from other excipients by IEX chromatography to remove potential impurities and surfactants and by dialysis over 24 h in buffer solution 100-200 times of their volumes. The buffer solution was renewed after 3 hours and after 14 hours. Stock solutions of test excipients were produced by dissolving 500 mM of the excipient in 90% of the required amount of buffer solution. After that, the pH was adjusted and the remaining volume of buffer solution was added. Then, the solution was filtered with a 0.22 μm filter. The corresponding amount of protein stock solution was added. Sufficient homogenization was provided.
(§3) Freeze/Thaw-Cycle: The protein-containing solutions were filled into cleaned 2R vials and crimped. The samples were frozen from 20° C. to −50° C. in 3 cycles at a rate of 2K/min in a Christ 2D-6 freeze dryer and then thawed at room temperature until the entire sample had reached the liquid state, before the cycle was started again.
(§4) Flow Imaging Microscopy: 165 μl of the sample solution were measured at 10× magnification using a flow imaging microscope (FlowCam, Fluid Imaging Technologies, Inc., Scarborough, Me., USA).
(§5) The resulting solutions were subjected to freezing/thawing stress and stirring stress.

Data set [5] concerns IgG antibody trastuzumab. Nature of the data set: Particle formation after stirring stress of trastuzumab (flow imaging microscopy). As to conditions: 50 mM phosphate buffer, pH 7.0; 5 mg/ml trastuzumab; 50 mM excipient; 2 h at 200 rpm; FIG. 2. Here is the method:
as §2
Stirring Stress: The protein-containing solutions were filled into cleaned 2R vials and crimped. Afterwards, the samples were stirred for 2 h at 200 rpm with a magnetic stirrer (Variomag Poly 15, Thermofisher, 3 mm polytetrafluoroethylene—coated stirring bars).
as §4, §5

Data set [6] deals with recombinant IgG antibody, either rituximab or omalizumab. Nature of the data set: Particles and turbidity (visual inspection) after freezing/thawing and stirring stress of rituximab or omalizumab. The settings on record: 10 mg/ml rituximab or omalizumab, 20 mM histidine pH 6.0, 75 mM excipient; compared with trehalose, sucrose, or trehalose or sucrose with methionine. Here is the method: as §2, with “of 20” for “of 50”, “mM histidine buffer” for “mM sodium phosphate at”, “pH 6.0.” for “pH 7.0.”, “excipients” for “excipients by IEX chromatography to remove potential impurities and surfactants and”, “after 6” for “after 3”, “after 20” for “after 14”
Freeze/Thaw-Cycle: The protein-containing solutions were filled into cleaned 6R vials and crimped. The samples were frozen from 20° C. to −70° C. in 5 cycles in a freezer and then thawed at room temperature until the entire sample had reached the liquid state, before the cycle was started again.
Stirring Stress: The protein-containing solutions were filled into cleaned 6R vials and crimped. Afterwards, the samples were stirred for 2 h at 200 rpm with a magnetic stirrer (Variomag Poly 15, Thermofisher, 5 mm polytetrafluoroethylene—coated stirring bars).
Visual inspection: 3 Vials of each formulation were visually inspected according to the method described in the European Pharmacopoeia. […]

Data set [7] has as its target interferon-alpha-2a (Homo sapiens, UniProt P01563, R46K). Nature of the data set: Particle formation after freezing/thawing stress of interferon-alpha-2a. The settings on record: 50 mM phosphate buffer, pH 7.0; 1 mg/ml interferon-alpha-2a; 50 mM excipient; FIG. 3. Here is the method:
as §2, §3, §4
The resulting solutions were subjected to freeze/thawing stress.

recombinant anakinra, sequence (P18510 with tags, fused parts or gaps): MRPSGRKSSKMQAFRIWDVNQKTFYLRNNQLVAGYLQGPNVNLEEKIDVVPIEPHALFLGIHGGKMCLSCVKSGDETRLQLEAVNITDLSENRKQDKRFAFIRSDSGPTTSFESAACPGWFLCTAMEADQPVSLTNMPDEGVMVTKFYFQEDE
interferon-alpha-2a, sequence (P01563 24-188 R46K): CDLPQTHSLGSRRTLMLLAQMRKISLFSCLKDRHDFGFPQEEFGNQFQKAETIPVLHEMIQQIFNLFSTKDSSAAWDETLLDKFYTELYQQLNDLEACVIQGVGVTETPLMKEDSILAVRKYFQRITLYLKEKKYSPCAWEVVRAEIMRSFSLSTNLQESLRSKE

For `O=C(CCCCC(=O)N(CCO)CCO)N(CCO)CCO` [compound A, N,N,N′,N′-tetrakis-(2-hydroxyethyl) adipinic acid amide], in data set [1], the “Particles in stressed formulations, compared with trehalose” value is reported as “less particles” and the “Turbidity of stressed formulations, compared with trehalose” value is given as “less turbid”. In addition, in data set [1] (polysorbate 80 at 0.05%), the “Particles in stressed formulations, compared with polysorbate 80” value was “about equally low amounts of particles” and the “Turbidity of stressed formulations, compared with polysorbate 80” value is listed as “about equally low in turbidity”. Besides, in data set [2], the “Particles in stressed formulations” value was “less particles” and the “Turbidity of stressed formulations” value was “less turbid”. The “Solubility according to the classification of the European Pharmacopoeia” value in data set [3] is given as “well soluble”. Further, in data set [4], the “Amount of particles after 3 freezing/thawing cycles” value is reported as “less particles than formulations comprising standard excipients like, glycerol, NaCl, or D(+) trehalose or formulations without any excipients”. Also, the “Amount of particles after stirring stress” value in data set [5] is given as “less particles than formulations comprising standard excipients like, glycerol, NaCl, or D(+) trehalose or formulations without any excipients”. In addition, in data set [6], the “Particles in stressed formulations” value is listed as “less particles” and the “Turbidity of stressed formulations” value is given as “less turbid”. Also, the “Amount of particles after 3 freezing/thawing cycles” value in data set [7] is “less particles than formulations without any excipient and formulations with arginine or polysorbate 20”.

For the molecule Polysorbate 20 [reference compound], the “Amount of particles after 3 freezing/thawing cycles” value in data set [4] is given as “even less particles”.
